Data published in patent publication US20250312303A1, “ANTICANCER AGENT” (AGC Inc., priority 2022, published 2025).

Experiments:
HeLa cells [1] = assay: SRB assay, relative cell proliferation rate of HeLa cells; assay type: cell-based
Source text: (§1) HeLa cells and PANC-1 cells were used as the cancer cells. Both these cells were obtained from ATCC. Further, NHDF cells obtained from Lonza Group Ltd. were used as control non-cancer cells. The culture mediums used were Dulbecco's Modified Eagle Medium (D-MEM, manufactured by FUJIFILM Wako Pure Chemical Corporation) to which 10% FBS had been added (hereinafter also referred to as the “normal medium”), a medium prepared by removing leucine from D-MEM and adding 10% FBS (hereinafter also referred to as the “Leu-removed medium”), and a medium prepared by removing valine from D-MEM and adding 10% FBS (hereinafter also referred to as the “Val-removed medium”).
(§2) The culture cells were inoculated into a 96-well culture plate at a concentration of 3×10^3 cells/well, and following adhesion, were cultured for 24, 48 or 72 hours in the normal medium, the Leu-removed medium or Val-removed medium, or a medium prepared by adding the fluorine-containing amino acid to the Leu-removed medium or Val-removed medium in an amount sufficient to achieve a final concentration of 0.8 mM. Following culturing, the cell proliferation rate was measured by SRB assay. As a control, the cell proliferation rate was measured in a similar manner for cells having a culture time of 0 hours.
(§3) The SRB assays were conducted in the following manner. Following cell culturing, the medium was removed, and 10% (wt/vol) of trichloroacetic acid was added to fix the cells. Subsequently, the fixed cells were washed three times with tap water, and then stained by adding a solution containing 0.4% (wt/vol) of sulforhodamine B dissolved in 1% acetic acid. Following subsequent washing three times with a 1% acetic acid solution, a 10 mM Tris solution was added, and the light absorbance at 540 nm was measured. The 540 nm absorbance value for each sample was used to indicate the cell quantity, and for each sample, the relative cell proliferation rate (%) at a culture time of X hours was determined using the formula below.
(§4) SRB assays were conducted in the same manner as Example 1 with the exceptions of using a medium prepared by removing glutamine from D-MEM and adding 10% FBS (hereinafter also referred to as the “Gln-removed medium”) as the culture medium instead of the Leu-removed medium, using monofluoroglutamine ((2S,4S)Gln(1F) or (2S,4R)Gln(1F)) as the fluorine-containing amino acid, and altering the amount of monofluoroglutamine added to the Gln-removed medium to an amount sufficient to achieve a final concentration of 4 mM.
(§5) SRB assays were conducted in the same manner as Example 1 with the exceptions of using the Gln-removed medium as the culture medium instead of the Leu-removed medium, using difluoroglutamine as the fluorine-containing amino acid, and altering the amount of difluoroglutamine added to the Gln-removed medium to an amount sufficient to achieve a final concentration of 4 mM.

NHDF cells = assay: SRB assay, relative cell proliferation rate of NHDF cells (control non-cancer cells); assay type: cell-based
Source text: as §1, §2, §3, §4

HeLa cells [2] = assay: Tumor volume of subcutaneously transplanted HeLa cells in SCID/SCID mice; assay type: in vivo; details: for Tumor volume: 5 mg/kg intraperitoneally every day for two weeks starting day 7; for Increase in the size of the tumor tissue compared with the control group: HeLa tumor-bearing SCID/SCID mice, 5 mg/kg intraperitoneally every day for two weeks, result in words
Description: First, 0.1 mL samples of an HeLa cell solution with a concentration of 1.0×10^7 cells/mL were transplanted beneath the skin of SCID/SCID (immunodeficient) mice. Starting 7 days after the HeLa cell transplantation, PBS (control group), leucine (5 mg/kg mouse bodyweight) or trifluoroleucine (5 mg/kg mouse bodyweight) was administered intraperitoneally every day for two weeks. The growth of the tumor tissue was observed over time from the time of HeLa transplantation, and the tumor volume (mm^3) was calculated. The tumor volume (mm^3) was calculated from the major diameter (mm) of the tumor tissue and the minor diameter (mm) of the tumor tissue using the formula shown below.
With the exceptions of using monofluoroisoleucine or 5-fluoro-5-methyl-norleucine (CAS RN: 1361228-49-0) instead of the trifluoroleucine, and starting the administration of the PBS, 5-fluoro-5-methyl-norleucine or monofluoroisoleucine 11 days after rather than 7 days after the HeLa cell transplantation, the same procedure as (1) above was used to measure the volume (mm^3) of the tumor formed by the subcutaneously transplanted HeLa cells over time.
(§6) First, 0.1 mL samples of an HeLa cell solution with a concentration of 1.0×10^7 cells/mL were transplanted beneath the skin of SCID/SCID (immunodeficient) mice. Starting 7 days after the HeLa cell transplantation, PBS (control group), glutamine (Gln) (5 mg/kg mouse bodyweight), (2S,4S)Gln(1F) (5 mg/kg mouse bodyweight) or (2S,4R)Gln(1F) (5 mg/kg mouse bodyweight) was administered intraperitoneally every day for two weeks. The growth of the tumor tissue was observed over time from the time of HeLa cell transplantation, and the tumor volume (mm^3) was calculated. The tumor volume (mm^3) was determined in the same manner as that described in Example 2.
as §6, with “mouse bodyweight), or di-F-Gln(F)” for “mouse bodyweight), (2S,4S)Gln(1F) (5 mg/kg mouse bodyweight) or (2S,4R)Gln(1F)”, “bodyweight), or di-F-Gln(F) (5 mg/kg” for “bodyweight) or (2S,4R)Gln(1F) (5 mg/kg”, “of HeLa transplantation, and” for “of HeLa cell transplantation, and”

PANC-1 cells = assay: SRB assay, relative cell proliferation rate of PANC-1 cells; assay type: cell-based
Source text: as §1, §2, §3, §4, §5

[3] = Leu-removed medium + 0.8 mM amino acid, culture time 24 h
[4] = Leu-removed medium + 0.8 mM amino acid, culture time 48 h
[5] = Leu-removed medium + 0.8 mM amino acid, culture time 72 h, hydrochloride
[6] = 7 days since HeLa cell transplantation
[7] = 14 days since HeLa cell transplantation
[8] = 21 days since HeLa cell transplantation
[9] = Gln-removed medium + 4 mM amino acid, culture time 24 h
[10] = Gln-removed medium + 4 mM amino acid, culture time 48 h
[11] = Gln-removed medium + 4 mM amino acid, culture time 72 h
[12] = 9 days since HeLa cell transplantation
[13] = 11 days since HeLa cell transplantation
[14] = 16 days since HeLa cell transplantation
[15] = 18 days since HeLa cell transplantation

`CC(CC(N)C(=O)O)C(F)(F)F.Cl` (stereo not shown) [Leu(3F), 2-amino-5,5,5-trifluoro-4-methylpentanoic acid hydrochloride] was tested, and the “Relative cell proliferation rate of HeLa cells” value (HeLa cells [1]; [3]) was 78.5%, the “Relative cell proliferation rate of HeLa cells” value (HeLa cells [1]; [4]) was 91.6% and the “Relative cell proliferation rate of HeLa cells” value (HeLa cells [1]; [5]) was 89.5%. The “Relative cell proliferation rate of NHDF cells” value (NHDF cells; [3]) was 138.5%, the “Relative cell proliferation rate of NHDF cells” value (NHDF cells; [4]) was 138.2% and the “Relative cell proliferation rate of NHDF cells” value (NHDF cells; [5]) was 185.6%. For the same compound, the “Relative cell proliferation rate of NHDF cells” value (NHDF cells; Leu-removed medium + 0.8 mM amino acid, culture time 72 h, listed as trifluoroleucine, hydrochloride) was about 200%, the Tumor volume (HeLa cells [2]; [6]) was 135.6 mm^3 and the Tumor volume (HeLa cells [2]; 10 days since HeLa cell transplantation) was 169.4 mm^3. It also gave a Tumor volume (HeLa cells [2]; 12 days since HeLa cell transplantation) of 204.1 mm^3, a Tumor volume (HeLa cells [2]; [7]) of 200.6 mm^3 and a Tumor volume (HeLa cells [2]; 17 days since HeLa cell transplantation) of 315.3 mm^3. For the same compound, the Tumor volume (HeLa cells [2]; 19 days since HeLa cell transplantation) was 460.2 mm^3, the Tumor volume (HeLa cells [2]; [8]) was 704.0 mm^3 and the “Increase in the size of the tumor tissue compared with the control group” value (shortened to “Increase in the size of the tumor tissue”) (HeLa cells [2]) was “dramatically inhibited”. For the same compound, the “Relative cell proliferation rate of PANC-1 cells” value (PANC-1 cells; [3]) was 77.1%, the “Relative cell proliferation rate of PANC-1 cells” value (PANC-1 cells; [4]) was 87.0% and the “Relative cell proliferation rate of PANC-1 cells” value (PANC-1 cells; [5]) was 75.5%.
With `NC(=O)[C@H](F)C[C@H](N)C(=O)O` [(2S,4R)-Gln(1F)] the “Relative cell proliferation rate of HeLa cells” value (HeLa cells [1]; [9]) was 46.8%, the “Relative cell proliferation rate of HeLa cells” value (HeLa cells [1]; [10]) was 21.5% and the “Relative cell proliferation rate of HeLa cells” value (HeLa cells [1]; [11]) was 23.1%. The “Relative cell proliferation rate of NHDF cells” value (NHDF cells; [9]) was 132.5%, the “Relative cell proliferation rate of NHDF cells” value (NHDF cells; [10]) was 46.5% and the “Relative cell proliferation rate of NHDF cells” value (NHDF cells; [11]) was 26.3%. It also gave a Tumor volume (HeLa cells [2]; [6]) of 74.6 mm^3, a Tumor volume (HeLa cells [2]; [12]) of 101.6 mm^3 and a Tumor volume (HeLa cells [2]; [13]) of 147.2 mm^3. The Tumor volume (HeLa cells [2]; [7]) was 219.1 mm^3, the Tumor volume (HeLa cells [2]; [14]) was 287.0 mm^3 and the Tumor volume (HeLa cells [2]; [15]) was 307.7 mm^3. For the same compound, the Tumor volume (HeLa cells [2]; [8]) was 431.4 mm^3, the “Increase in the size of the tumor tissue” value (HeLa cells [2]) was “dramatically inhibited” and the “Relative cell proliferation rate of PANC-1 cells” value (PANC-1 cells; [9]) was 65.0%. The “Relative cell proliferation rate of PANC-1 cells” value (PANC-1 cells; [10]) was 34.7% and the “Relative cell proliferation rate of PANC-1 cells” value (PANC-1 cells; [11]) was 25.7%.
In the case of `NC(=O)[C@@H](F)C[C@H](N)C(=O)O` [(2S,4S)-Gln(1F)], the “Relative cell proliferation rate of HeLa cells” value (HeLa cells [1]; [9]) is reported as 29.2%, the “Relative cell proliferation rate of HeLa cells” value (HeLa cells [1]; [10]) is reported as 32.1% and the “Relative cell proliferation rate of HeLa cells” value (HeLa cells [1]; [11]) is reported as 25.0%. For the same compound, the “Relative cell proliferation rate of NHDF cells” value (NHDF cells; [9]) was 157.4%, the “Relative cell proliferation rate of NHDF cells” value (NHDF cells; [10]) was 129.4% and the “Relative cell proliferation rate of NHDF cells” value (NHDF cells; [11]) was 82.9%. It also gave a Tumor volume (HeLa cells [2]; [6]) of 72.1 mm^3, a Tumor volume (HeLa cells [2]; [12]) of 96.9 mm^3 and a Tumor volume (HeLa cells [2]; [13]) of 149.0 mm^3. For the same compound, the Tumor volume (HeLa cells [2]; [7]) was 207.1 mm^3, the Tumor volume (HeLa cells [2]; [14]) was 242.3 mm^3 and the Tumor volume (HeLa cells [2]; [15]) was 357.2 mm^3. For the same compound, the Tumor volume (HeLa cells [2]; [8]) was 439.9 mm^3, the “Increase in the size of the tumor tissue” value (HeLa cells [2]) was “dramatically inhibited” and the “Relative cell proliferation rate of PANC-1 cells” value (PANC-1 cells; [9]) was 31.5%. The “Relative cell proliferation rate of PANC-1 cells” value (PANC-1 cells; [10]) was 27.3% and the “Relative cell proliferation rate of PANC-1 cells” value (PANC-1 cells; [11]) was 25.7%.
